The series is described as follows: solubility of rod like amorphous particles compared to Form I. The note with it: qualitative statement, no method or figures given.

Molecules are shown by their SMILES.

As to `CC(C)CN(C[C@@H](OP(=O)(O)O)[C@H](Cc1ccccc1)NC(=O)O[C@H]1CCOC1)S(=O)(=O)c1ccc(N)cc1` [rod like amorphous particles, calcium (2R, 3S)-1-(4-amino-N-isobutyl-phenylsulfonamido)-4-phenyl-3-(((S)-tetrahydrofuran-3-yloxy)carbonylamino)butan-2-yl phosphate], the solubility result is given as “enhanced solubility compared to Form I”.

The record behind these values is US20110165202A1, “SOLID STATE FORMS OF FOSAMPRENAVIR CALCIUM SALT AND PROCESSES FOR PREPARATION THEREOF” (PLIVA HRVATSKA D.O.O., priority 2010, published 2011).
